Assay results as given in article PMC12751066, “Plastidial phosphoglucose isomerase undergoes thioredoxin-mediated redox modification without altering catalytic activity” (Biochemical Journal, 2025).

Legend:
PGI1 [1] = target: T1, PGI1 (Arabidopsis thaliana, UniProt Q8H103); assay: inhibition at varying 6PG concentrations, coupled spectrophotometric assay; format: biochemical; conditions: F6P or G6P as substrate; 25 °C; reduced and oxidized PGI1
T1 construct: homodimer reported as functional unit
T1 sequence (Q8H103 70-613): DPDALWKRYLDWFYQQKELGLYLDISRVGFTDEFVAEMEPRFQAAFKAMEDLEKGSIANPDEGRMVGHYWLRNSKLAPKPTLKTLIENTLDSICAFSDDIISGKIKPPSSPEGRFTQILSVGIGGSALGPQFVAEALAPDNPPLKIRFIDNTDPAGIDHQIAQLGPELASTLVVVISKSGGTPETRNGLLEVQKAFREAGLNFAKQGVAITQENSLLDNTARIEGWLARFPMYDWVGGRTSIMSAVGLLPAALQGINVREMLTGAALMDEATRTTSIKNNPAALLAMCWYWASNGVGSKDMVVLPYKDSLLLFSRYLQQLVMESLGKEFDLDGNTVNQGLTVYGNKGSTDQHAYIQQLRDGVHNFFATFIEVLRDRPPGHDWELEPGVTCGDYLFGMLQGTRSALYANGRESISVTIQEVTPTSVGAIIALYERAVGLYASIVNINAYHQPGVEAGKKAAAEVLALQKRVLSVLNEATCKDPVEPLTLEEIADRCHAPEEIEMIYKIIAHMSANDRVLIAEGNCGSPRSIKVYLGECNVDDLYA

PGI1 [2] = target: T1, PGI1; assay: inhibition at varying E4P concentrations, coupled spectrophotometric assay; format: biochemical; conditions: F6P or G6P as substrate; 25 °C; reduced and oxidized PGI1

Structure (SMILES) | inhibition at varying 6PG concentrations, coupled spectrophotometric assay (PGI1 [1]) | inhibition at varying E4P concentrations, coupled spectrophotometric assay (PGI1 [2])
O=C(O)[C@H](O)[C@@H](O)[C@H](O)[C@H](O)COP(=O)(O)O [6PG] | PGI1 activity decreased with increasing concentrations of E4P (Figure 9A and B) and 6PG | 
O=C[C@H](O)[C@H](O)COP(=O)(O)O [E4P] |  | PGI1 activity decreased with increasing concentrations of E4P (Figure 9A and B)
